Data as given in patent US4294849A, “Prostaglandin analogues” (Warner-Lambert Company, priority 1979, dated 1981).

Experiments:
[1] = test system: blood platelet aggregation; experiment: inhibitory activity on adenosine diphosphate-induced blood platelet aggregation in platelet-rich plasma of rats; assay type: cell-based, rat; settings: for Inhibitory Activity on Blood Platelet Aggregation Rat, relative to PGE1 taken as 1: relative to PGE1 = 1; for inhibitory activity on adenosine diphosphate-induced blood platelet aggregation, times as potent as PGE1: rat platelet-rich plasma, vs PGE1
dogs = experiment: hypotensive activity, intravenous administration to allobarbital-anaesthetised dogs; assay type: in vivo, dog; settings: for Hypotensive Activity Dog (i.v.), relative to PGE1 taken as 1: relative to PGE1 = 1; for useful activities (hypotensive, blood platelet aggregation inhibitory, vasodilator): in words, summary of the Table; for hypotensive activity, times as potent as PGE1: intravenous, allobarbital-anaesthetised dogs, vs PGE1
[2] = test system: blood platelet aggregation; experiment: inhibitory activity on adenosine diphosphate-induced blood platelet aggregation in platelet-rich plasma of humans; assay type: cell-based, human; settings: for Inhibitory Activity on Blood Platelet Aggregation Human, relative to PGE1 taken as 1: relative to PGE1 = 1; for inhibitory activity on adenosine diphosphate-induced blood platelet aggregation, times as potent as PGE1: human platelet-rich plasma, vs PGE1
mice = settings: mouse, in vivo; for Diarrhoea-inducing Activity Mice (p.o.), relative to PGE1 taken as 1 / diarrhoea-inducing activity compared with PGE1: po
isolated rabbit hearts = experiment: coronary vasodilator activity on isolated rabbit hearts; settings: for Vasodilator Activity Rabbit, relative to PGE1 taken as 1: relative to PGE1 = 1; for coronary vasodilator activity, times as potent as PGE1: isolated rabbit hearts, vs PGE1
[3] = test system: spontaneously hypertensive rats; experiment: hypotensive activity, oral administration to conscious spontaneously hypertensive rats; assay type: in vivo, rat; settings: for Hypotensive Activity Rat (p.o.), relative to PGE1 taken as 1: relative to PGE1 = 1; for hypotensive activity, times as potent as PGE1: oral, conscious spontaneously hypertensive rats, vs PGE1
Source text: In the Table, all the activities are indicated relative to the activity of PGE1, taken as 1.

[4] = acute toxicity tests, intravenous or oral administration to mice; settings: mouse, in vivo
Method: Acute toxicity tests on the compounds of the present invention were conducted by administering them intravenously or orally to mice.

Compound	Inhibitory Activity on Blood Platelet Aggregation Rat, relative to PGE1 taken as 1 [1]	Hypotensive Activity Dog (i.v.), relative to PGE1 taken as 1 (dogs)	Inhibitory Activity on Blood Platelet Aggregation Human, relative to PGE1 taken as 1 [2]	Diarrhoea-inducing Activity Mice (p.o.), relative to PGE1 taken as 1 (mice)	Vasodilator Activity Rabbit, relative to PGE1 taken as 1 (isolated rabbit hearts)	Hypotensive Activity Rat (p.o.), relative to PGE1 taken as 1 [3]	inhibitory activity on adenosine diphosphate-induced blood platelet aggregation, times as potent as PGE1 [1] [times]	useful activities (hypotensive, blood platelet aggregation inhibitory, vasodilator) (dogs)	hypotensive activity, times as potent as PGE1 (dogs) [times]	inhibitory activity on adenosine diphosphate-induced blood platelet aggregation, times as potent as PGE1 [2] [times]	diarrhoea-inducing (side-effect) activity compared with the known compounds (mice)	diarrhoea-inducing activity compared with PGE1 (mice)	coronary vasodilator activity, times as potent as PGE1 (isolated rabbit hearts) [times]	hypotensive activity, times as potent as PGE1 [3] [times]	LD50 ([4]; intravenous administration) [mg/kg]	LD50 ([4]; oral administration) [mg/kg]
CCCC[C@@H](C)[C@H](O)/C=C/[C@H]1[C@H](O)CC(=O)[C@@H]1CCCC/C=C/C(=O)O [A, 9-oxo-11α,15α-dihydroxy-16R-methylprosta-trans-2,trans-13-dienoic acid, reference compound]	2.84	9.5	1.6	270.6	2-3	–	–	–	–	–	–	–	–	–	–	–
CCCCCC(CC)C[C@H](O)/C=C/[C@H]1[C@H](O)CC(=O)[C@@H]1CCCC/C=C/C(=O)O (stereo partly drawn) [D, 9-oxo-11α,15α-dihydroxy-17,20-diethylprosta-trans-2,trans-13-dienoic acid, reference compound]	1.4	1.45	2.4	3.2	< 0.1	30-100	–	–	–	–	–	–	–	–	–	–
CCCC(CC)C[C@H](O)/C=C/[C@H]1[C@H](O)CC(=O)[C@@H]1CCCC/C=C/C(=O)O (stereo partly drawn) [B, 9-oxo-11α,15α-dihydroxy-17-ethylprosta-trans-2,trans-13-dienoic acid, reference compound]	14.5	1.5	22.1	< 1	1.0	10	–	–	–	–	–	–	–	–	–	–
CCCC[C@@H](C)C[C@H](O)/C=C/[C@H]1[C@H](O)CC(=O)[C@@H]1CCCC/C=C/C(=O)O [G, 9-oxo-11α,15α-dihydroxy-17R,20-dimethylprosta-trans-2,trans-13-dienoic acid]	70.5	3.5	48.1	< 1	14.0	–	70.5	extremely strong	3.5	48.1	weaker	lower diarrhoea-inducing activity than PGE1	14.0	–	–	–
CCCC[C@H](C)C[C@H](O)/C=C/[C@H]1[C@H](O)CC(=O)[C@@H]1CCCC/C=C/C(=O)O [F, 9-oxo-11α,15α-dihydroxy-17S,20-dimethylprosta-trans-2,trans-13-dienoic acid]	81.6	10.0	38.5	< 1	19.0	100	81.6	extremely strong	10	38.5	weaker	lower diarrhoea-inducing activity than PGE1	19.0	100	~12	~50
CCCC[C@H](C)C[C@H](O)/C=C/[C@H]1[C@H](O)CC(=O)[C@@H]1CCCC/C=C/C(=O)OC [H, methyl 9-oxo-11α,15α-dihydroxy-17S,20-dimethylprosta-trans-2,trans-13-dienoate]	–	5.0	–	< 1	–	100	–	extremely strong	5	–	weaker	lower diarrhoea-inducing activity than PGE1	–	100	–	–
CCCCCC(CC)C[C@H](O)/C=C/[C@H]1[C@H](O)CC(=O)[C@@H]1CCCC/C=C/C(=O)OC (stereo partly drawn) [E, methyl 9-oxo-11α,15α-dihydroxy-17,20-diethylprosta-trans-2,trans-13-dienoate, reference compound]	2.2	0.88	0.14	1.7	0.1	10	–	–	–	–	–	–	–	–	–	–
CC(c1ccccc1)[C@H](O)/C=C/[C@H]1[C@H](O)CC(=O)[C@@H]1CCCC/C=C/C(=O)O (stereo partly drawn) [C, 9-oxo-11α,15α-dihydroxy-16-phenyl-18,19,20-trinorprosta-trans-2,trans-13-dienoic acid, reference compound]	–	39.0	–	11.9	0.3	–	–	–	–	–	–	–	–	–	–	–
